For assay [1], the system named is HCV replicon cells. As to the kind of experiment: HCV replicon FRET assay. It is filed as cell-based. The text has this:
FRET Assay Preparation. To perform the HCV FRET screening assay, 96-well cell culture plates were used. The FRET peptide (Anaspec, Inc.) (Taliani et al., Anal. Biochem. 1996, 240, 60-67) contains a fluorescence donor, EDANS, near one end of the peptide and an acceptor, DABCYL, near the other end. The fluorescence of the peptide is quenched by […] resonance energy transfer (RET) between the donor and the acceptor, but as the NS3 protease cleaves the peptide the products are released from RET quenching and the fluorescence of the donor becomes apparent. The assay reagent was made as follows: 5× cell Luciferase cell culture lysis reagent from Promega (#E153A) diluted to 1× with dH2O, NaCl added to 150 mM final, the FRET peptide diluted to 20 μM final from a 2 mM stock.
To prepare plates, HCV replicon cells, with or without a Renilla luciferase reporter gene, were trypsinized and placed into each well of a 96-well plate with titrated test compounds added in columns 3 through 12; columns 1 and 2 contained a control compound (HCV protease inhibitor), and the bottom row contained cells without compound. The plates were then placed in a CO2 incubator at 37° C.
Assays. Subsequent to addition of the test compounds described above (FRET Assay Preparation), at various times the plate was removed and Alamar blue solution (Trek Diagnostics, #00-100) was added per well as a measure of cellular toxicity. After reading in a Cytoflour 4000 instrument (PE Biosystems), plates were rinsed with PBS and then used for FRET assay by the addition of 30 ul of the FRET peptide assay reagent described above (FRET Assay Preparation) per well. The plate was then placed into the Cytoflour 4000 instrument which had been set to 340 excite/490 emission, automatic mode for 20 cycles and the plate read in a kinetic mode. Typically, the signal to noise using an endpoint analysis after the reads was at least three-fold. Alternatively, after Alamar blue reading, plates were rinsed with PBS, 50 ul of DMEM (high glucose) without phenol red was added and plates were then used for luciferase assay using the Promega Dual-Glo Luciferase Assay System.
Compound analysis was determined by quantification of the relative HCV replicon inhibition and the relative cytotoxicity values. To calculate cytoxicity values, the average Alamar Blue fluorescence signals from the control wells were set as 100% non-toxic. The individual signals in each of the compound test wells were then divided by the average control signal and multiplied by 100% to determine […]. To calculate the HCV replicon inhibition values, an average background value was obtained from the two wells containing the highest amount of HCV protease inhibitor at the end of the assay period. These numbers were similar to those obtained from naïve Huh-7 cells.
The background numbers were then subtracted from the average signal obtained from the control wells and this number was used as 100% activity. The individual signals in each of the compound test wells were then divided by the averaged control values after background subtraction and multiplied by 100% to determine percent activity. EC50 values for a protease inhibitor titration were calculated as the concentration which caused a 50% reduction in FRET or luciferase activity. The two numbers generated for the compound plate, percent cytoxicity and percent activity were used to determine compounds of interest for further analysis.

Assay [2] has as its target T1, HCV NS5B RdRp genotype 1b (Hepatitis C virus genotype 1b, UniProt Q9WMX2).
T1 construct: The protein was expressed with an 18 amino acid C-terminal truncation to enhance the solubility; made in house; host or cells: E. coli BL21 (DE3)
As to the kind of experiment: Modified HCV NS5B RdRp enzyme assay (preincubation protocol). The class given is biochemical. The protocol: HCV NS5B RdRp cloning, expression, and purification. The cDNA encoding the NS5B protein of HCV, genotype 1b, was cloned into the pET21a expression vector. The protein was expressed with an 18 amino acid C-terminal truncation to enhance the solubility. The E. coli competent cell line BL21 (DE3) was used for expression of the protein. Cultures were grown at 37° C. for ˜4 hours until the cultures reached an optical density of 2.0 at 600 nm. The cultures were cooled to 20° C. and induced with 1 mM IPTG. Fresh ampicillin was added to a final concentration of 50 μg/ml and the cells were grown overnight at 20° C.
Cell pellets (3 L) were lysed for purification to yield 15-24 mgs of purified NS5B. The lysis buffer consisted of 20 mM Tris-HCl, pH 7.4, 500 mM NaCl, 0.5% triton X-100, 1 mM DTT, 1 mM EDTA, 20% glycerol, 0.5 mg/ml lysozyme, 10 mM MgCl2, 15 ug/ml deoxyribonuclease I, and Complete TM protease inhibitor tablets (Roche). After addition of the lysis buffer, frozen cell pellets were resuspended using a tissue homogenizer. To reduce the viscosity of the sample, aliquots of the lysate were sonicated on ice using a microtip attached to a Branson sonicator. The sonicated lysate was centrifuged at 100,000×g for 1 hr at 4° C. and filtered through a 0.2 μm filter unit (Corning).
The protein was purified using three sequential chromatography steps: Heparin sepharose CL-6B, polyU sepharose 4B, and Hitrap SP sepharose (Pharmacia). The chromatography buffers were identical to the lysis buffer but contained no lysozyme, deoxyribonuclease I, MgCl2 or protease inhibitor and the NaCl concentration of the buffer was adjusted according to the requirements for charging the protein onto the column. Each column was eluted with a NaCl gradient which varied in length from 5-50 column volumes depending on the column type. After the final chromatography step, the resulting purity of the enzyme is >90% based on SDS-PAGE analysis. The enzyme was aliquoted and stored at −80° C.
Standard HCV NS5B RdRp enzyme assay. HCV RdRp genotype 1b assays were run in a final volume of 60 μl in 96 well plates (Costar 3912). The assay buffer is composed of 20 mM Hepes, pH 7.5, 2.5 mM KCl, 2.5 mM MgCl2, 1 mM DTT, 1.6 U RNAse inhibitor (Promega N2515), 0.1 mg/ml BSA (Promega R3961), and 2% glycerol. All compounds were serially diluted (3-fold) in DMSO and diluted further in water such that the final concentration of DMSO in the assay was 2%. HCV RdRp genotype 1b enzyme was used at a final concentration of 28 nM. A polyA template was used at 6 nM, and a biotinylated oligo-dT 12 primer was used at 180 nM final concentration. Template was obtained commercially (Amersham 27-4110). Biotinylated primer was prepared by Sigma Genosys. 3H-UTP was used at 0.6 μCi (0.29 μM total UTP). Reactions were initiated by the addition of enzyme, incubated at 30° C. for 60 min, and stopped by adding 25 μl of 50 mM EDTA containing SPA beads (4 μg/μl, Amersham RPNQ 0007). Plates were read on a Packard Top Count NXT after >1 hr incubation at room temperature.
Modified HCV NS5B RdRp enzyme assay. A modified enzyme assay was performed essentially as described for the standard enzyme assay except for the following: The biotinylated oligo dT12 primer was precaptured on streptavidin-coated SPA beads by mixing primer and beads in assay buffer and incubating at room temperature for one hour. Unbound primer was removed after centrifugation. The primer-bound beads were resuspended in 20 mM Hepes buffer, pH 7.5 and used in the assay at final concentrations of 20 nM primer and 0.67 μg/μl beads. Order of addition in the assay: enzyme (14 nM) was added to diluted compound followed by the addition of a mixture of template (0.2 nM), 3H-UTP (0.6 μCi, 0.29 μM), and primer-bound beads, to initiate the reaction; concentrations given are final. Reactions were allowed to proceed for 4 hours at 30° C.
IC50 values for compounds were determined using seven different [I]. […]

Where two headings read alike, the source gives them in different places.

The term EC50 denotes the concentration at which the effect is half-maximal. Higher therefore signals lower potency in that assay. By IC50 is commonly meant the concentration needed to halve the response being measured. Read a high IC50 as weaker potency.

T1 sequence (Q9WMX2 2420-2992): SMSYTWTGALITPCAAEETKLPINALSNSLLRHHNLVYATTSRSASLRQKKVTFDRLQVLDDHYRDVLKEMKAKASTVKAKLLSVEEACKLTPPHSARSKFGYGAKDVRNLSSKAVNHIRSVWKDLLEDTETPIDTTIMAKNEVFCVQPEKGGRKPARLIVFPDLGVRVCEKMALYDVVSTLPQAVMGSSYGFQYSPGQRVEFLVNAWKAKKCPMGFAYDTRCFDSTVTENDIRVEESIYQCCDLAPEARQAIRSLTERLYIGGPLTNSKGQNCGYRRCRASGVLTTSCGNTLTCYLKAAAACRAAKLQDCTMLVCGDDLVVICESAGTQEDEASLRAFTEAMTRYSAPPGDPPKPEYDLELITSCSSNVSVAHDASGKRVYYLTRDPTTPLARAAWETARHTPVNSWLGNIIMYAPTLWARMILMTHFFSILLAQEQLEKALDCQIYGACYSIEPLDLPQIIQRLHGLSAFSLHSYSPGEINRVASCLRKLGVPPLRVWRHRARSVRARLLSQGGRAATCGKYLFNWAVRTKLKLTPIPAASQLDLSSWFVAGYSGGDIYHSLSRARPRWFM

The compound `COc1ccc2c(c1)C=C(C(=O)N1CC3CCC(C1)N3C(=O)OC(C)(C)C)Cn1c-2c(C2CCCCC2)c2ccc(C(=O)NS(=O)(=O)N(C)C)cc21` yielded an EC50 in assay [1] (Hepatitis C virus) of 1 to 500 nM. In assay [2], this compound returned an IC50 of 1 to 500 nM.
As to `COc1ccc2c(c1)C=C(C(=O)N1CC3CCC(C1)N3)Cn1c-2c(C2CCCCC2)c2ccc(C(=O)NS(=O)(=O)N(C)C)cc21`, the EC50 in assay [1] (Hepatitis C virus) was in the range of 1 to 500 nM. In assay [2], this compound showed an IC50 of 1 to 500 nM.
In assay [1] (Hepatitis C virus), `COc1ccc2c(c1)CC(C(=O)N1C3CCC1CN(C)C3)Cn1c-2c(C2CCCCC2)c2ccc(C(=O)NS(=O)(=O)N(C)C)cc21` (stereo not drawn) came in with an EC50 of 1 to 500 nM. This compound also returned an IC50 in assay [2] of 1 to 500 nM.
As for `COc1ccc2c(c1)C=C(C(=O)N1CC3CCC(C1)N3C)Cn1c-2c(C2CCCCC2)c2ccc(C(=O)NS(=O)(=O)N(C)C)cc21`, the EC50 in assay [1] (Hepatitis C virus) was 1 to 500 nM. Also, the IC50 in assay [2] was 1 to 500 nM.
The compound `COc1cccc2c1C=C(C(=O)N1C3CCC1CN(C)C3)Cn1c-2c(C2CCCCC2)c2ccc(C(=O)NS(=O)(=O)N(C)C)cc21` registered an EC50 in assay [1] (Hepatitis C virus) of 1 to 500 nM. Moreover, in assay [2], the IC50 was in the range of 1 to 500 nM.
Compound `COc1cccc2c1C=C(C(=O)N1CC3CCC(C1)N3C(=O)OC(C)(C)C)Cn1c-2c(C2CCCCC2)c2ccc(C(=O)NS(=O)(=O)N(C)C)cc21` yielded an EC50 in assay [1] (Hepatitis C virus) of 1 to 500 nM. Also, the IC50 in assay [2] fell in the range of 1 to 500 nM.
For `COc1cccc2c1C=C(C(=O)N1CC3CCC(C1)N3)Cn1c-2c(C2CCCCC2)c2ccc(C(=O)NS(=O)(=O)N(C)C)cc21`, in assay [1] (Hepatitis C virus), the EC50 was in the range of 1 to 500 nM. Also, the IC50 in assay [2] was 1 to 500 nM.
As for `COc1cccc2c1C=C(C(=O)N1CC3CCC(C1)N3C)Cn1c-2c(C2CCCCC2)c2ccc(C(=O)NS(=O)(=O)N(C)C)cc21`, the EC50 in assay [1] (Hepatitis C virus) lay in the range of 1 to 500 nM. Moreover, the IC50 in assay [2] was 1 to 500 nM.
Turning to `COc1ccc2c(c1)C=C(C(=O)N1C3CCC1CN(C1CC1)C3)Cn1c-2c(C2CCCCC2)c2ccc(C(=O)NS(=O)(=O)N(C)C)cc21`, in assay [1] (Hepatitis C virus), the EC50 fell in the range of 1 to 500 nM. For the same compound, the IC50 in assay [2] was less than 20 nM.
For `COC(=O)c1ccc2c(C3CCCCC3)c3n(c2c1)CC(C(=O)N1C2CCC1CN(C)C2)=Cc1c(OC(F)(F)F)cccc1-3`, in that order: more than 500 nM and more than 500 nM.
For `CN1CC2CCC(C1)N2C(=O)C1=Cc2c(OC(C)(F)F)cccc2-c2c(C3CCCCC3)c3ccc(C(=O)NS(=O)(=O)N(C)C)cc3n2C1`, in assay [1] (Hepatitis C virus), the EC50 is more than 500 nM. Moreover, the IC50 in assay [2] is more than 500 nM.
`COc1ccc2c(c1)C=C(C(=O)N1C3CCC1CN(C)C3)Cn1c-2c(C2CCCCC2)c2ccc(C(=O)NS(=O)(=O)C3CC3)cc21` came in with an EC50 in assay [1] (Hepatitis C virus) of 1 to 500 nM. This compound registered an IC50 in assay [2] of 1 to 500 nM.
In turn, `COC(=O)c1ccc2c(C3CCCCC3)c3n(c2c1)CC(C(=O)N1C2CCC1CN(C)C2)=Cc1cc(OC)ccc1-3` returned a concentration giving a half-maximal response (EC50) in assay [1] (Hepatitis C virus) of more than 500 nM. For the same compound, in assay [2], the concentration for half-maximal inhibition (IC50) was more than 500 nM.
For the compound `COc1ccc2c(c1)C=C(C(=O)N1C3CCC1CN(C)C3)Cn1c-2c(C2CCCCC2)c2ccc(C(=O)O)cc21`, the EC50 in assay [1] (Hepatitis C virus) is 1 to 500 nM. In assay [2], this compound registered an IC50 of 1 to 500 nM.
Compound `COc1ccc2c(c1)C=C(C(=O)N1C3CCC1CN(C)C3)Cn1c-2c(C2CCCCC2)c2ccc(C(=O)NS(=O)(=O)C(C)C)cc21` registered an EC50 in assay [1] (Hepatitis C virus) of 1 to 500 nM. Also, the IC50 in assay [2] was in the range of 1 to 500 nM.
In assay [1] (Hepatitis C virus), `CCC(C)S(=O)(=O)NC(=O)c1ccc2c(C3CCCCC3)c3n(c2c1)CC(C(=O)N1C2CCC1CN(C)C2)=Cc1cc(OC)ccc1-3` (stereo not drawn) yielded an EC50 of 1 to 500 nM. In assay [2], this compound yielded an IC50 of 1 to 500 nM.
Regarding `COc1ccc2c(c1)C=C(C(=O)N1C3CCC1CN(C)C3)Cn1c-2c(C2CCCCC2)c2ccc(C(=O)NS(=O)(=O)N(C)C)cc21` [drawing 16], the EC50 in assay [1] was in the range of 1 to 500 nM. In assay [2], this compound displayed an IC50 of 1 to 500 nM.
In turn, `COc1ccc2c(c1)C=C(C(=O)N1C3CCC1CN(C)C3)Cn1c-2c(C2CCCCC2)c2ccc(C(=O)NS(=O)(=O)N(C)C)cc21` [drawing 25] yielded an EC50 in assay [1] (Hepatitis C virus) of 1 to 500 nM. For the same compound, in assay [2], the IC50 lay within 1 to 500 nM.

The record behind these values is patent US7541351B2, “Compounds for the treatment of hepatitis C” (Bristol-Myers Squibb Company, priority 2007, dated 2009).
